This note sets out measurements from patent publication US10501461B2, “Tyrosine amide derivatives as Rho-kinase inhibitors” (CHIESI FARMACEUTICI S.P.A., priority 2017, dated 2019).

Structures are written as SMILES.

The target of one experiment is Rho kinase 1 (ROCK-I) (Homo sapiens, UniProt Q13464). Briefly: In vitro Rho kinase inhibitory activity assay (ADP-Glo), Rho kinase 1. Particulars: 10 μM ATP, 25° C., expressed as range of activity. It is filed as biochemical. The method, then: (§1) The effectiveness of compounds of the present invention to inhibit Rho kinase activity can be determined in a 10 μl assay containing 40 mM Tris pH7.5, 20 mM MgCl2 0.1 mg/ml BSA, 50 μM DTT and 2.5 μM peptide substrate (Myelin Basic Protein) using an ADP-Glo kit (Promega). Compounds were dissolved in DMSO such that the final concentration of DMSO was 1% in the assay. All reactions/incubations are performed at 25° C. Compound (2 ul) and either Rho kinase 1 or 2 (4 μl) were mixed and incubated for 30 mins. Reactions were initiated by addition of ATP (4 μl) such that the final concentration of ATP in the assay was 10 μM. After a 1 hour incubation 10 μl of ADP-Glo Reagent was added and after a further 45 minute incubation 20 ul of Kinase Detection Buffer was added and the mixture incubated for a further 30 minutes. The luminescent signal was measured on a luminometer. […] Compounds were tested in dose-response format and the inhibition of kinase activity was calculated at each concentration of compound. To determine the IC50 (concentration of compound required to inhibit 50% of the enzyme activity) data were fit to a plot of % inhibition vs Log10 compound concentration using a sigmoidal fit with a variable slope and fixing the maximum to 100% and the minimum to 0%. To determine the Ki values the Cheng-Prusoff equation was utilized (Ki=IC50/(1+[S]/Km).
Chain of Rho kinase 1 (ROCK-I) (Q13464 whole entry): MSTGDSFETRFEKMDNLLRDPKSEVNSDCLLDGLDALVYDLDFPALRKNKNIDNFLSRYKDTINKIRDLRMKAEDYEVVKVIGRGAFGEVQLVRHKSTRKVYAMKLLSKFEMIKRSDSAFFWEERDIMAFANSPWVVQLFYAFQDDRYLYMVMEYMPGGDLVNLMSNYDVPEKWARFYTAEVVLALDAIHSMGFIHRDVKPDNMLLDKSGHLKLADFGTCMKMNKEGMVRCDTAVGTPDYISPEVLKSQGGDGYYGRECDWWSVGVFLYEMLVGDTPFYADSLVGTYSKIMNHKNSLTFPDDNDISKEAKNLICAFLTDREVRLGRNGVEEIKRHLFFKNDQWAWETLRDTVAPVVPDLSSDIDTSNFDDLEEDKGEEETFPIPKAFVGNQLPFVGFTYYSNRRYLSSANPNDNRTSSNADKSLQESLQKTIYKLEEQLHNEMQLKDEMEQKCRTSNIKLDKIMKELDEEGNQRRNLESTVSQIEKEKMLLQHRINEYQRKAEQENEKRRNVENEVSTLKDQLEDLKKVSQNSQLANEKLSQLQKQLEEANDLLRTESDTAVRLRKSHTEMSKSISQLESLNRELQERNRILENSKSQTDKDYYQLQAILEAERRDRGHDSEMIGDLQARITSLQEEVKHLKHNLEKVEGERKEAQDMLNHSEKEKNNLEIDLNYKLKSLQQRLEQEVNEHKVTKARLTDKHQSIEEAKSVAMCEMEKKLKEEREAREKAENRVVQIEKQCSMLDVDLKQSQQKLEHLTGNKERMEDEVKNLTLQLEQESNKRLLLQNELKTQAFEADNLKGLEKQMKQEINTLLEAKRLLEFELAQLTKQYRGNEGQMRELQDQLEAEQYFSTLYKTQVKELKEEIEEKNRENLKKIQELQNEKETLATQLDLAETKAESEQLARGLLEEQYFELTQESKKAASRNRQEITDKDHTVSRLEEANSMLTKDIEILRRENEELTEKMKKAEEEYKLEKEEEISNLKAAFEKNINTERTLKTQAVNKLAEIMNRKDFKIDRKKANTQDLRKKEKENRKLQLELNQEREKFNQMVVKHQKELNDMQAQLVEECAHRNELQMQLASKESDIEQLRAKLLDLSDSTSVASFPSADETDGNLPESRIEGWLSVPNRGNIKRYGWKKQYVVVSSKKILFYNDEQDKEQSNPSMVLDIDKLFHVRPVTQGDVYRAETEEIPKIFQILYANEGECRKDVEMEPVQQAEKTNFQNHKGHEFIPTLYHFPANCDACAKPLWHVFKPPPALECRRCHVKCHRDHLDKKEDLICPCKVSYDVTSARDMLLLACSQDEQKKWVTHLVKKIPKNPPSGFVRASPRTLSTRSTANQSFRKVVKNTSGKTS
On the technique in general: ADP-Glo turns the ADP formed in a reaction into a luminescent signal.

The target in the next experiment is Rho kinase 2 (ROCK-II) (Homo sapiens, UniProt O75116). Briefly: In vitro Rho kinase inhibitory activity assay (ADP-Glo), Rho kinase 2. Conditions: 10 μM ATP, 25° C., expressed as range of activity. It is filed as biochemical. The method, then: as §1
Chain of Rho kinase 2 (ROCK-II) (O75116 whole entry): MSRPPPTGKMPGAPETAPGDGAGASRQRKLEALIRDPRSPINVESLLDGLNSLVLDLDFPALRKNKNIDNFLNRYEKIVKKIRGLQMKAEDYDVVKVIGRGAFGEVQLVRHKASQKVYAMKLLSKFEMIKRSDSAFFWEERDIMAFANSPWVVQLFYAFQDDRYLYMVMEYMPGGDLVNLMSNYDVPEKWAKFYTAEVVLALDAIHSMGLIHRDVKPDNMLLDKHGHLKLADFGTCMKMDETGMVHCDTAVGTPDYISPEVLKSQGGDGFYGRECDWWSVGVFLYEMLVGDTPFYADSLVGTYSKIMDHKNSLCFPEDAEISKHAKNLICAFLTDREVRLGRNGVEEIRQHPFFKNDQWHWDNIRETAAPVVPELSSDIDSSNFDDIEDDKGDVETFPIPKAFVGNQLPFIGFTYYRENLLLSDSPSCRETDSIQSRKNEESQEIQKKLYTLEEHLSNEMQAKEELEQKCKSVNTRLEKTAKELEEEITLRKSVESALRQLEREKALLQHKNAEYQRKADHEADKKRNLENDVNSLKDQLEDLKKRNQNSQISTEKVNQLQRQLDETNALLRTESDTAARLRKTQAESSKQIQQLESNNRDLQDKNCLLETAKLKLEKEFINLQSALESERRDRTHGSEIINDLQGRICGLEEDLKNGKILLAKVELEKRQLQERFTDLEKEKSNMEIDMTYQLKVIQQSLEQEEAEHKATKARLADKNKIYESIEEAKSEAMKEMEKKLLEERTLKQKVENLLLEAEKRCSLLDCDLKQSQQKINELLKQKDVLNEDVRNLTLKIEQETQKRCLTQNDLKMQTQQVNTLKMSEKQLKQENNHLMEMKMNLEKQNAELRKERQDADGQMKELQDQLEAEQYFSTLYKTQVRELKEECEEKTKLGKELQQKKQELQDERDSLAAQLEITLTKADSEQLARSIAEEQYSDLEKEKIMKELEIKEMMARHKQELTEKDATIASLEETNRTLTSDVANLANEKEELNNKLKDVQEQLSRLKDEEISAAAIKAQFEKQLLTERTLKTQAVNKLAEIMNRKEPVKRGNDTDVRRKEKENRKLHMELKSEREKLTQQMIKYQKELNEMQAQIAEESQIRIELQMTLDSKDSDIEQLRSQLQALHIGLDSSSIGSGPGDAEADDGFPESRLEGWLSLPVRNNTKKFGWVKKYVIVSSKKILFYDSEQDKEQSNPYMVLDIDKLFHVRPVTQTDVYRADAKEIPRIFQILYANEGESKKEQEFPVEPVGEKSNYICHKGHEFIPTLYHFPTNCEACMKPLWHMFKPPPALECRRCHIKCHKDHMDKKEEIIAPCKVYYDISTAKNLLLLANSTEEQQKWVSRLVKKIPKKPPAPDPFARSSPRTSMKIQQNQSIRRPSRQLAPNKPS

By Ki is commonly meant a measure of affinity in units of concentration, obtained from inhibition or displacement. The low end stands for tighter binding, the high end for weaker binding. For `Cc1noc(C2CCN(C(=O)[C@@H](N)Cc3ccc(Oc4ccnc5[nH]cc(C)c45)c(F)c3)C2)n1` (single isomer, unassigned) [Example 8B], the Ki on Rho kinase 1 (ROCK-I) and on Rho kinase 2 (ROCK-II) was less than 3 nM each time.

Turning to `N[C@@H](Cc1ccc(Oc2ccnc3[nH]cc(-c4ccncc4)c23)cc1)C(=O)N1CCN(Cc2ccccc2)CC1` [Example 192, (S)-2-amino-1-(4-benzylpiperazin-1-yl)-3-(4-((3-(pyridin-4-yl)-1H-pyrrolo[2,3-b]pyridin-4-yl)oxy)phenyl)propan-1-one], the Ki at Rho kinase 1 (ROCK-I) and at Rho kinase 2 (ROCK-II) was less than 3 nM each time.

Regarding `N[C@@H](Cc1ccc(Oc2ccnc3[nH]cc(C#CCO)c23)cc1)C(=O)NC1CCCCC1` [Example 217, (S)-2-amino-N-cyclohexyl-3-(4-((3-(3-hydroxyprop-1-yn-1-yl)-1H-pyrrolo[2,3-b]pyridin-4-yl)oxy)phenyl)propanamide], the Ki on Rho kinase 1 (ROCK-I) and on Rho kinase 2 (ROCK-II) was less than 3 nM in each case.

For `CNC(=O)C(Cc1ccc(Oc2ccnc3[nH]ccc23)cc1)NCC1CCCCC1` (stereo not shown) [Example 185, 3-(4-((1H-pyrrolo[2,3-b]pyridin-4-yl)oxy)phenyl)-2-((cyclohexylmethyl)amino)-N-methylpropanamide], the Ki at Rho kinase 1 (ROCK-I) and at Rho kinase 2 (ROCK-II) was greater than 30 nM throughout.

Turning to `Cc1c[nH]c2nccc(Oc3ccc(CC(N)C(=O)N4CCn5cncc5C4)cc3F)c12` (stereo not shown) [Example 81, 2-amino-1-(5,6-dihydroimidazo[1,5-a]pyrazin-7(8H)-yl)-3-(3-fluoro-4-((3-methyl-1H-pyrrolo[2,3-b]pyridin-4-yl)oxy)phenyl)propan-1-one], the Ki on Rho kinase 1 (ROCK-I) and on Rho kinase 2 (ROCK-II) was less than 3 nM in each case.

Take `Cc1c[nH]c2nccc(Oc3ccc(C[C@H](N)C(=O)NC4CCN(C)CC4)cc3F)c12` [Example 1, (S)-2-amino-3-(3-fluoro-4-((3-methyl-1H-pyrrolo[2,3-b]pyridin-4-yl)oxy)phenyl)-N-(1-methylpiperidin-4-yl)propanamide]: the Ki at Rho kinase 1 (ROCK-I) and on Rho kinase 2 (ROCK-II) was less than 3 nM throughout.

`Cc1c[nH]c2nccc(Oc3ccc(C[C@H](N)C(=O)N4CCc5ncncc5C4)cc3F)c12` [Example 2, (S)-2-amino-1-(7,8-dihydropyrido[4,3-d]pyrimidin-6(5H)-yl)-3-(3-fluoro-4-((3-methyl-1H-pyrrolo[2,3-b]pyridin-4-yl)oxy)phenyl)propan-1-one]: the Ki on Rho kinase 1 (ROCK-I) and on Rho kinase 2 (ROCK-II) was less than 3 nM throughout.

On to `N[C@H](Cc1ccc(Oc2ccnc3[nH]ccc23)cc1)C(=O)NC1CCOCC1` [Example 100, (R)-3-(4-((1H-pyrrolo[2,3-b]pyridin-4-yl)oxy)phenyl)-2-amino-N-(tetrahydro-2H-pyran-4-yl)propanamide], for which the Ki on Rho kinase 1 (ROCK-I) and at Rho kinase 2 (ROCK-II) was greater than 30 nM throughout.

Turning to `Cc1c[nH]c2nccc(Oc3ccc(C[C@H](N)C(=O)NCC4CCCCC4)cc3)c12` [Example 139, (S)-2-amino-N-(cyclohexylmethyl)-3-(4-((3-methyl-1H-pyrrolo[2,3-b]pyridin-4-yl)oxy)phenyl)propanamide], the Ki on Rho kinase 1 (ROCK-I) and at Rho kinase 2 (ROCK-II) was less than 3 nM in each case.

For the compound `Cc1c[nH]c2nccc(Oc3ccc(C[C@H](N)C(=O)NCC4CCN(C)CC4)cc3F)c12` [Example 40, (S)-2-amino-3-(3-fluoro-4-((3-methyl-1H-pyrrolo[2,3-b]pyridin-4-yl)oxy)phenyl)-N-((1-methylpiperidin-4-yl)methyl)propanamide], the Ki was 3 to 30 nM at Rho kinase 1 (ROCK-I) and less than 3 nM at Rho kinase 2 (ROCK-II).

For `N[C@@H](Cc1ccc(Oc2ccnc3[nH]cc(Cl)c23)cc1)C(=O)NC1CCCCC1` [Example 191, (S)-2-amino-3-(4-((3-chloro-1H-pyrrolo[2,3-b]pyridin-4-yl)oxy)phenyl)-N-cyclohexylpropanamide], the inhibition constant (Ki) on Rho kinase 1 (ROCK-I) and on Rho kinase 2 (ROCK-II) was less than 3 nM throughout.

`Cc1c[nH]c2nccc(Oc3ccc(C[C@H](N)C(=O)NCCc4ccncc4)cc3)c12` [Example 89, (S)-2-amino-3-(4-((3-methyl-1H-pyrrolo[2,3-b]pyridin-4-yl)oxy)phenyl)-N-(2-(pyridin-4-yl)ethyl)propanamide]: the Ki on Rho kinase 1 (ROCK-I) and at Rho kinase 2 (ROCK-II) was less than 3 nM in each case.

Regarding `Cc1c[nH]c2nccc(Oc3ccc(C[C@H](N)C(=O)N4C[C@H]5CNC[C@H]5C4)cc3F)c12` [Example 31, (S)-2-amino-3-(3-fluoro-4-((3-methyl-1H-pyrrolo[2,3-b]pyridin-4-yl)oxy)phenyl)-1-((3aR,6aS)-hexahydropyrrolo[3,4-c]pyrrol-2(1H)-yl)propan-1-one], the inhibition constant Ki at Rho kinase 1 (ROCK-I) and on Rho kinase 2 (ROCK-II) was less than 3 nM in each case.

For `CNC(=O)c1cccc(CN2CCN(C(=O)[C@@H](N)Cc3ccc(Oc4ccnc5[nH]cc(C)c45)c(F)c3)CC2)c1` [Example 165, (S)-3-((4-(2-amino-3-(3-fluoro-4-((3-methyl-1H-pyrrolo[2,3-b]pyridin-4-yl)oxy)phenyl)propanoyl)piperazin-1-yl)methyl)-N-methylbenzamide], the Ki on Rho kinase 1 (ROCK-I) and at Rho kinase 2 (ROCK-II) was less than 3 nM throughout.

For the compound `N#Cc1c[nH]c2nccc(Oc3ccc(C[C@H](N)C(=O)NC4CCCCC4)cc3F)c12` [Example 221, (S)-2-amino-3-(4-((3-cyano-1H-pyrrolo[2,3-b]pyridin-4-yl)oxy)-3-fluorophenyl)-N-cyclohexylpropanamide], the Ki on Rho kinase 1 (ROCK-I) and on Rho kinase 2 (ROCK-II) was less than 3 nM in each case.

As to `Cc1c[nH]c2nccc(Oc3ccc(CC(N)C(=O)N4CCN(c5ccccn5)CC4)cc3F)c12` (stereo not shown) [Example 80, 2-amino-3-(3-fluoro-4-((3-methyl-1H-pyrrolo[2,3-b]pyridin-4-yl)oxy)phenyl)-1-(4-(pyridin-2-yl)piperazin-1-yl)propan-1-one], the Ki on Rho kinase 1 (ROCK-I) and on Rho kinase 2 (ROCK-II) was less than 3 nM each time.

With `N[C@H](Cc1ccc(Oc2ccnc3[nH]ccc23)cc1)C(=O)NCC1CCCCC1` [Example 108, (R)-3-(4-((1H-pyrrolo[2,3-b]pyridin-4-yl)oxy)phenyl)-2-amino-N-(cyclohexylmethyl)propanamide], the Ki at Rho kinase 1 (ROCK-I) and on Rho kinase 2 (ROCK-II) was 3 to 30 nM in each case.

On to `Cc1c[nH]c2nccc(Oc3ccc(CC(N)C(=O)N4CCN(Cc5ccc6c(c5)OCO6)CC4)cc3F)c12` (stereo not shown) [Example 52, 2-amino-1-(4-(benzo[d][1,3]dioxol-5-ylmethyl)piperazin-1-yl)-3-(3-fluoro-4-((3-methyl-1H-pyrrolo[2,3-b]pyridin-4-yl)oxy)phenyl)propan-1-one], for which the Ki on Rho kinase 1 (ROCK-I) and at Rho kinase 2 (ROCK-II) was less than 3 nM throughout.

With `N[C@H](Cc1ccc(Oc2ccnc3[nH]ccc23)cc1)C(=O)NCc1ccccc1` [Example 98, (R)-3-(4-((1H-pyrrolo[2,3-b]pyridin-4-yl)oxy)phenyl)-2-amino-N-benzylpropanamide], the Ki on Rho kinase 1 (ROCK-I) and at Rho kinase 2 (ROCK-II) was greater than 30 nM throughout.

As to `Cc1c[nH]c2nccc(Oc3ccc(C[C@H](N)C(=O)N4CC[C@@H](N(C)C)C4)cc3F)c12` [Example 43, (S)-2-amino-1-((R)-3-(dimethylamino)pyrrolidin-1-yl)-3-(3-fluoro-4-((3-methyl-1H-pyrrolo[2,3-b]pyridin-4-yl)oxy)phenyl)propan-1-one], the Ki on Rho kinase 1 (ROCK-I) and on Rho kinase 2 (ROCK-II) was less than 3 nM throughout.

Regarding `Cc1c[nH]c2nccc(Oc3ccc(C[C@H](N)C(=O)NC4CCCCC4)cc3F)c12` [Example 20, (S)-2-amino-N-cyclohexyl-3-(3-fluoro-4-((3-methyl-1H-pyrrolo[2,3-b]pyridin-4-yl)oxy)phenyl)propanamide], the inhibition constant Ki at Rho kinase 1 (ROCK-I) and on Rho kinase 2 (ROCK-II) was less than 3 nM each time.

Regarding `CC(=O)N1CCN(C(=O)C(N)Cc2ccc(Oc3ccnc4[nH]cc(C)c34)c(F)c2)CC1` (stereo not shown) [Example 133, 1-(4-acetylpiperazin-1-yl)-2-amino-3-(3-fluoro-4-((3-methyl-1H-pyrrolo[2,3-b]pyridin-4-yl)oxy)phenyl)propan-1-one], the inhibitory constant (Ki) at Rho kinase 1 (ROCK-I) and on Rho kinase 2 (ROCK-II) was less than 3 nM throughout.

On to `N[C@H](Cc1ccc(Oc2ccnc3[nH]ccc23)cc1)C(=O)Nc1nccs1` [Example 106, (R)-3-(4-((1H-pyrrolo[2,3-b]pyridin-4-yl)oxy)phenyl)-2-amino-N-(thiazol-2-yl)propanamide], for which the Ki at Rho kinase 1 (ROCK-I) and at Rho kinase 2 (ROCK-II) was greater than 30 nM throughout.

As for `Cc1c[nH]c2nccc(Oc3ccc(C[C@H](N)C(=O)NCC4CN(C)C4)cc3F)c12` [Example 47, (S)-2-amino-3-(3-fluoro-4-((3-methyl-1H-pyrrolo[2,3-b]pyridin-4-yl)oxy)phenyl)-N-((1-methylazetidin-3-yl)methyl)propanamide], the Ki on Rho kinase 1 (ROCK-I) and on Rho kinase 2 (ROCK-II) was less than 3 nM throughout.

As for `N[C@@H](Cc1ccc(Oc2ccnc3[nH]cc(CO)c23)c(F)c1)C(=O)NC1CCOCC1` [Example 209, (S)-2-amino-3-(3-fluoro-4-((3-(hydroxymethyl)-1H-pyrrolo[2,3-b]pyridin-4-yl)oxy)phenyl)-N-(tetrahydro-2H-pyran-4-yl)propanamide], the figures for the Ki on Rho kinase 1 (ROCK-I) and on Rho kinase 2 (ROCK-II) were 3 to 30 nM and less than 3 nM, respectively.

On to `Cc1c[nH]c2ncnc(Oc3ccc(C[C@H](N)C(=O)NC4CCN(C)CC4)cc3F)c12` [Example 117, (S)-2-amino-3-(3-fluoro-4-((5-methyl-7H-pyrrolo[2,3-d]pyrimidin-4-yl)oxy)phenyl)-N-(1-methylpiperidin-4-yl)propanamide], for which the Ki on Rho kinase 1 (ROCK-I) and on Rho kinase 2 (ROCK-II) was 3 to 30 nM throughout.
